Converted amounts (≈) assume the structure as drawn.
Key:
[1] = target: T1, MgCA (Malassezia globosa, UniProt A8Q1N3); test: stopped-flow CO2 hydrase assay; assay type: biochemical
T1 construct: gene MGL_1814
T1 sequence (A8Q1N3 1-241): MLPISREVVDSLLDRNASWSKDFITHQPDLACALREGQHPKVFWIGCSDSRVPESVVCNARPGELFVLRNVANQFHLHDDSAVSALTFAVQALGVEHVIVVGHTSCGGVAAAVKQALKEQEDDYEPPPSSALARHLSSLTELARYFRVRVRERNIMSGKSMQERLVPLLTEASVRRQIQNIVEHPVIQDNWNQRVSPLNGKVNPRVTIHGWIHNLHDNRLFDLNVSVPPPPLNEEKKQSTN
Method in brief: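 Ki was derived by nonlinear least-squares fitting using the Cheng-Prusoff equation. Recombinant carbonic anhydrase at 5–12 nM was first preincubated with inhibitor at room temperature for 15 min. CO2 hydration at 1.7–17 mM CO2 was tracked by stopped-flow over 10–100 s with 0.2 mM phenol red read at 557 nm, in 20 mM Hepes pH 7.4 containing 20 mM Na2SO4. Initial rates were taken from no fewer than six traces with uncatalysed rates subtracted, and at least three determinations were averaged.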

[2] = target: T2, MpaCA (Malassezia pachydermatis, UniProt A0A0M8MPA4); test: stopped-flow CO2 hydrase assay; assay type: biochemical
T2 construct: gene Malapachy_3798
T2 sequence (A0A0M8MPA4 1-242): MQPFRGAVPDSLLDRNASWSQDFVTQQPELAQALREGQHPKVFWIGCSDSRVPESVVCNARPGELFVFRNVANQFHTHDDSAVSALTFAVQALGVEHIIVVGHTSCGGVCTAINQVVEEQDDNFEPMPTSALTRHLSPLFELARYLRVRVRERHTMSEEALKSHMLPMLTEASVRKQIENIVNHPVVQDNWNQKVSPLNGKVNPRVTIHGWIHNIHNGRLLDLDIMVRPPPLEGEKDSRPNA

[3] = test system: C. albicans; test: microbe, parasite or virus in culture; parameters: broth microdilution MIC, M. pachydermatis and Candida, 35 °C; conditions: Candida albicans
Procedure: (§1) Inoculum preparations for antifungal assays were performed following the CLSI guidelines for antifungal susceptibility testing of yeasts.[31] Antifungal activity was evaluated on unicellular yeasts Candida albicans ATCC 10231, Candida glabrata ATCC 90030 (DSMZ 11226), Malassezia pachydermatis CDC 16334 (DSMZ 6172), Malassezia globosa ATCC MYA 4612, and Malassezia furfur ATCC 14521. All the fungal strains were stored at −80 °C in cryovials. Then Candida spp. and Malassezia pachydermatis were reactivated in RPMI 1640 broth for 24–48 h at 35 °C. The so obtained fresh cultures were streaked onto Sabouraud dextrose agar and incubated for 24–48 h at 35 °C. Malassezia globosa and furfur were reactivated in modified RPMI 1640 broth[32] for 24–48 h at 35 °C (M. furfur) and 33 °C (M. globosa), and then the cultures were streaked onto Leeming and Notman agar (MLNA) and incubated for 48–72 h at 35 °C for M. furfur and at 33 °C for M. globosa. The fungal inoculum for the testing was prepared by suspending in phosphate buffer (PB) 10 mM pH 7 4–5 colonies of about 1 mm diameter. The fungal suspension was then adjusted to a final optical density of 0.5 McFarland standard (1–5 × 10^6 cells/mL). The compound solutions were tested in a range of concentrations from 0.01 μg/mL to 256 μg/mL, and 50 μL were then added in 96 wells microtiter plates with 50 μL of fungal inoculum and incubated for 24–48 h at 35 °C. Growth and sterility controls were performed. […] Compounds 3a, 3c, 5b, 7a–d, 9c, 11e, 11i, and 14a,b were selected as representatives of the chemical moieties synthesized prior to their screen on yeasts of biomedical relevance such as M. pachydermatis DSMZ 6172, C. albicans ATCC 10231, and C. glabrata ATCC 90030 (DSMZ 11226) strains. The clinical used drugs Ketoconazole, SeS2, and Amphotericin B were included as references (Table 1).

[4] = test system: T3, C. glabrata DSMZ 11226; test: microbe, parasite or virus in culture; parameters: broth microdilution MIC, M. pachydermatis and Candida, 35 °C; conditions: Nakaseomyces glabratus, DSMZ11226
T3 construct: DSMZ 11226 (ATCC 90030)
Procedure: as §1

[5] = test system: T4, M. pachydermatis DSMZ 6172; test: microbe, parasite or virus in culture; parameters: broth microdilution MIC, M. pachydermatis and Candida, 35 °C; conditions: Malassezia pachydermatis, DSMZ6172
T4 construct: DSMZ 6172 (CDC 16334)
Procedure: as §1

[6] = test system: T5, M. globosa ATCC MYA 4612; test: microbe, parasite or virus in culture; conditions: Malassezia globosa
T5 construct: ATCC MYA 4612
Procedure: as §1

[7] = test system: T6, ATCC M. furfur 14521; test: microbe, parasite or virus in culture; conditions: Malassezia furfur
T6 construct: ATCC 14521
Procedure: as §1

[8] = target: T1, MgCA; test: biochemical; parameters: stopped-flow CO2 hydration assay, phenol red absorbance at 557 nm, 15 min preincubation, Cheng-Prusoff KI
Procedure: Enzyme concentrations ranged between 5 and 12 nM. […] The presence of the sulfonamide moiety (i.e., either primary/secondary) within our scaffolds prompted us to investigate whether the compounds listed in this study were endowed with modulation features against the enzymatic metalloenzyme carbonic anhydrases (CAs, EC 4.2.1.1) expressed in Malassezia spp. of interest such as M. pachydermatis (MpaCA), M. globosa (MgCA), and M. restricta (MreCA). […] The obtained activities in Table 3 were all reported as KI values.

Row | SMILES | Ki [1] | Ki [2] | MIC [3] | MIC [4] | MIC [5] | MIC [6] | MIC [7] | Ki [8]
1 | CC(=O)Oc1ccccc1C(=O)NC(=[Se])Nc1cc(S(N)(=O)=O)ccc1O [11e] | 4.73 µM | 33.8 µM | 256 µg/mL (≈ 561 µM) | 256 µg/mL (≈ 561 µM) | 0.5 µg/mL (≈ 1.1 µM) | 6.7 ± 2.1 µg/mL (≈ 14.7 µM) | 0.75 ± 0.67 µg/mL (≈ 1.64 µM) | –
2 | NS(=O)(=O)c1ccc(O)c(NC(=[Se])NC(=O)c2cc(Br)cc(OC(F)(F)F)c2)c1 [11i] | – | 12.7 µM | 64 µg/mL (≈ 114 µM) | 32 µg/mL (≈ 57 µM) | 0.5 µg/mL (≈ 0.891 µM) | 64 µg/mL (≈ 114 µM) | 5 ± 2.45 µg/mL (≈ 8.91 µM) | 6.25 µM
3 | Cc1cccc(C(=O)NC(=[Se])Nc2cc(S(N)(=O)=O)ccc2O)c1 [11j] | – | 14.8 µM | – | – | 0.5 µg/mL (≈ 1.21 µM) | 128 µg/mL (≈ 310 µM) | 16 ± 8.76 µg/mL (≈ 38.8 µM) | 5.64 µM
4 | NS(=O)(=O)c1ccc(NC(=O)Nc2ccccc2F)cc1 [14a] | – | 0.845 µM | > 256 µg/mL | > 256 µg/mL | > 256 µg/mL | > 256 µg/mL | > 256 µg/mL | 6.74 µM
5 | NS(=O)(=O)c1ccc(NC(=S)Nc2ccccc2F)cc1 [14b] | – | 0.488 µM | > 256 µg/mL | > 256 µg/mL | > 256 µg/mL | > 256 µg/mL | > 256 µg/mL | 5.49 µM
6 | O=C(Nc1ccccc1)Nc1ccccc1F [14c] | – | > 10 µM | – | – | > 256 µg/mL | > 256 µg/mL | > 256 µg/mL | > 10 µM
7 | Fc1ccccc1NC(=S)Nc1ccccc1 [14d] | – | > 10 µM | – | – | > 256 µg/mL | > 256 µg/mL | 128 µg/mL (≈ 520 µM) | > 10 µM
8 | O=C(NC(=[Se])Nc1ccccc1)c1ccccc1 [16a] | – | > 10 µM | – | – | 0.8 ± 0.29 µg/mL (≈ 2.64 µM) | 29.3 ± 18.7 µg/mL (≈ 96.6 µM) | 0.8 ± 0.6 µg/mL (≈ 2.64 µM) | > 10 µM
9 | O=C(NC(=[Se])Nc1ccccc1)c1cc(Br)cc(OC(F)(F)F)c1 [16b] | – | > 10 µM | – | – | 1 µg/mL (≈ 2.15 µM) | 341 ± 148 µg/mL (≈ 732 µM) | 10.7 ± 4.62 µg/mL (≈ 23 µM) | > 10 µM
10 | O=C(NC(=[Se])Nc1ccccc1F)c1ccccc1 [16c] | – | > 10 µM | – | – | 1 µg/mL (≈ 3.11 µM) | 64 µg/mL (≈ 199 µM) | 2 µg/mL (≈ 6.23 µM) | > 10 µM
11 | O=C(NC(=[Se])Nc1c(F)c(F)cc(F)c1F)c1ccccc1 [16d] | – | > 10 µM | – | – | 1 µg/mL (≈ 2.67 µM) | > 256 µg/mL | 2.7 ± 1.15 µg/mL (≈ 7.2 µM) | > 10 µM
12 | NS(=O)(=O)c1ccc(C[Se]c2ccc(NC(=[Se])NC(=O)c3cc(Br)cc(OC(F)(F)F)c3)cc2)cc1 [compound 12, 3-Bromo-N-((4-((4-sulfamoylbenzyl)selanyl)phenyl)carbamoselenoyl)-5-(trifluoromethoxy)benzamide] | – | 71.6 µM | – | – | 6.7 ± 2.3 µg/mL (≈ 9.38 µM) | 256 µg/mL (≈ 358 µM) | 128 µg/mL (≈ 179 µM) | 1.76 µM
